Reference: PMC4456216 (Nature structural & molecular biology, 2015)

Key:
CBP KIX domain = assay: Isothermal titration calorimetry; parameters: species or system mouse; conditions: read-out: Dissociation constant (KD), CBP KIX, ITC, 25°C, 10 mM MES pH 6.5, 50 mM NaCl, CBP KIX titrated into TAD, KD from a representative experiment with standard error for fit to one-site binding model (n = 2 or 3), nd = no detectable binding under experimental conditions
CRY1 CC peptide = assay: Isothermal titration calorimetry; parameters: species or system mouse; conditions: read-out: Dissociation constant (KD), CRY1 CC, ITC, 25°C, 10 mM MES pH 6.5, 50 mM NaCl, CRY1 CC titrated into TAD, KD from a representative experiment with standard error for fit to one-site binding model (n = 2 or 3), nd = no detectable binding under experimental conditions

With “BMAL1 619X: BMAL1 TAD truncation mutant that removed the C-terminal seven residues” the Kd (CBP KIX domain) was 4.44 ± 0.23 µM and the Kd (CRY1 CC peptide) was 19.7 ± 2.57 µM.
